According to patent US9265739B2, “Methods and use of compounds that bind to HER2/neu receptor complex” (The Trustees Of The University Of Pennsylvania, priority 2010, dated 2016):

Columns and labels:
T6-17 cells [1] = experiment: Soft agar colony growth screening, T6-17 cells; format: cell-based, murine; settings: soft agar colonies counted on day 21, relative to DMSO control, p<0.05, FIG. 1/2
Description: (§1) Targeted molecules were screened in vitro for anti-tumor activity using a modified […] growth of transformed cell assay, as described in Fukazawa et al. (1995), Anal. Biochem., 10:83-90. Anchorage-independent growth capability is perhaps the best indicator of the malignant phenotype and is determined by efficiency of cells to form colonies in soft agar (Drebin, et al., Cell 41, 697-706 (1985)). All experiments were conducted in 6 cm dishes in triplicate. Agar bottom layers consisted of 3 ml 0.25% agarose/DMEM (Dulbecco's Modified Eagle Medium) supplemented with 10% FBS (Fetal Bovine Serum), 2 mM L-glutamine, and 100 u/ml Penicillin/1 μg/ml Streptomycin. About 1000-2000 cells T6-17/SK-BR-3 are layered on the top in 1 ml 0.18% agarose/DMEM, 10% FBS, 2 mM L-glutamine, and 100 μ/ml Penicillin/1 μg/ml Streptomycin. Cultures were treated every 3 days with 0.5 ml of supplemented DMEM containing measured amounts of the Her2 inhibitors, or DMSO (dimethyl sulfoxide) alone. On the day before the colonies were counted, the samples were incubated with 1 ml of Hank's Balanced Salt Solution containing 1 mg/ml p-iodonitrotetrazolium violet (INT, Sigma) to stain colonies. The next day, colonies were counted using a 7× achromatic magnifying eyepiece (Bausch and Lomb). Triplicate cultures were counted on day 21 and will be verified by at least two different persons. […]

SK-BR-3 cells = experiment: Soft agar colony growth screening, SK-BR-3 cells; format: cell-based; settings: soft agar colonies counted on day 21, relative to DMSO control, p<0.05, FIG. 1/2
Description: as §1

T6-17 cells [2] = experiment: MTT cell proliferation assay, T6-17 cells; format: cell-based, murine; settings: indicated doses, three days, FIG. 3
From the text: (§2) The activity of S22-57 in cell proliferation assays using different cell lines was examined. T6-17 is a murine cell line engineered to express human HER2/neu. […] HBL100 is an immortalized human breast cancer cell line. XHT-1-1A are mouse NIH3T3 cells transformed by Harvey-RAS (XHT-1-1a) previously developed and used (Drebin, et al., Cell 41, 697-706 (1985)). Both HBL100 and XHT-1-1A are used as controls. To measure cell proliferation, we used the modified 3-[4,5-dimethylthiazol-2-yl]-2,5-diphenyl tetrazolium bromide (MTT) assay as previously described (Masuda, et al., Oncogene 25, 7740-7746 (2006)). Cells (2000-5000 cells/well) were seeded in 96-well plates in the presence of inhibitors with different concentration and incubated at 37° C. in a humidified 5% CO2 atmosphere. After 72 h, cells were incubated in fresh medium for another 4 hours before a total of 25 μl of MTT solution (5 mg/ml in PBS) was added to each well, and after 2 h of incubation at 37° C., 100 μl of the extraction buffer (20% w/v SDS, 50% N,N-dimethyl formamide, pH 4.7) was added. After an overnight incubation at 37° C., the optical density at 570 nm was measured using a Tecan ELISA reader. […] Proliferation of cells was measured by the MTT assay.

[3] = test system: HER2 (phosphorylation at Y877); experiment: Inhibition of HER2 phosphorylation in HC1 cells (western blot); format: cell-based, human; settings: serum-starved HC1 cells, inhibitor 1 hour, EGF 50 ng/ml 10 minutes, FIG. 4
Description: The effect of S22-57 was also examined in the cetuximab-resistant non-small cell lung cancer cell line HC1. Confluent HC1 cells were first serum starved for 24 hours before exposed to inhibitors as indicated for 1 hour. Cells were then stimulated by EGF (50 ng/ml) for 10 minutes. […] Both antibodies were purchased from Cell Signaling.

HC1 cells = experiment: MTT cell proliferation assay, HC1 cells; format: cell-based, human; settings: indicated doses, three days, FIG. 3
From the text: as §2

## O=C(CCc1cc(C(F)(F)F)cc(C(F)(F)F)c1)NN/C=C1\C=C(Cl)C=C(Cl)C1=O [S22-57]
T6-17 cells [1]
  effect on T6-17 cell proliferation (colony growth in culture): reduced cellular growth in culture relative to DMSO control
SK-BR-3 cells
  effect on SK-BR-3 cell proliferation (colony growth in culture): reduced cellular growth in culture relative to DMSO control
T6-17 cells [2]
  inhibition of proliferation of T6-17 cells: inhibited T6-17 and HC1 dose-dependently
[3]
  EGF-stimulated phosphorylation of HER2 at Y877: inhibited
HC1 cells
  inhibition of proliferation of HC1 cells: inhibited T6-17 and HC1 dose-dependently
